Measurements as given in article PMC5519634, “Effects of 4(1H)-quinolinone derivative, a novel non-nucleotide allosteric purinergic P2Y2 agonist, on cardiomyocytes in neonatal rats” (Scientific Reports, 2017).
Each block holds one compound with its values, some of them ahead of it.

Tests used:
[1] = test system: empty vector-transfected parental 1321N1 cells; assay: Ca2+ mobilization in empty vector-transfected parental 1321N1 cells; format: cell-based, human; details: 10 μM; data not shown
[2] = target: T1, P2Y2 in neonatal rat cardiomyocytes (NRCMs) (Rattus norvegicus, UniProt P41232); assay: cell-based
T1 sequence (P41232 whole entry): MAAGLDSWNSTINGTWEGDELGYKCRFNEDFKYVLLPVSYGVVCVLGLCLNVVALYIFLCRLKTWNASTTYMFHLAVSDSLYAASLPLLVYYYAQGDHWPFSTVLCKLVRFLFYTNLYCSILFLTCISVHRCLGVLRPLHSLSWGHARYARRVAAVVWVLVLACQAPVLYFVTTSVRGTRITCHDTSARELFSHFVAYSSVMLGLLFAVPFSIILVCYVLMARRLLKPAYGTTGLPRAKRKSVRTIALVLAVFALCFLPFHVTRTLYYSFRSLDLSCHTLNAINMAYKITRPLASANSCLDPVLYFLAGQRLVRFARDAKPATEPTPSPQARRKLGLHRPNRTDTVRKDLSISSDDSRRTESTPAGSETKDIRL

[3] = test system: Nr4a1, Nr4a2, Nr4a3, c-fos mRNA in NRCMs; assay: mRNA expression analysis of Nr4a1, Nr4a2, Nr4a3 and c-fos in NRCMs; format: cell-based, rat; details: for induction of Nr4a1 mRNA at 2 h versus isoproterenol alone: 30 μM Compound 89 or 100 μM ATP in the presence of 10 μM isoproterenol
Method: Neonatal rat cardiomyocytes were seeded in a collagen I-coated 96-well plate, then cultured and maintained for a week before the ligand stimulation assay. […] After stimulation, cDNA samples were synthesized from lysates using TaqMan Gene Expression Cells-to-Ct kits (Thermo Fisher Scientific) according to the manufacturer’s instructions, followed by quantitative real-time polymerase chain reaction analysis using a Prism 7900HT sequence detector (Thermo Fisher Scientific). Thermal cycling parameters were 2 min at 50 °C and 10 min at 95 °C, followed by 40 cycles at 95 °C for 15 sec and 60 °C for 1 min. The mRNA levels were analysed with the comparative Ct method (2^−ΔΔCt) using Rplp0 as the housekeeping gene. The TaqMan Gene Expression assays (Thermo Fisher Scientific) used herein were as follows: Rn01533237_m1 (Nr4a1), Rn00570936_m1 (Nr4a2), Rn01354012_m1 (Nr4a3), Rn02396759_m1 (c-fos), and Rn03302271_gH (Rplp0).

[4] = test system: neonatal rat cardiomyocytes (NRCMs); assay: Isoproterenol-induced cardiac hypertrophy in NRCMs; format: cell-based; details: 10 μM isoproterenol
Method: Neonatal rat cardiomyocytes were seeded in a 96-well collagen I plate at a density of 5000 cells/well. They were incubated overnight and then transferred to a serum-free medium for one day. Next, the cells were treated with the indicated concentrations of compounds and 10 μM isoproterenol, and then incubated for 2 days. To quantify cardiomyocyte hypertrophy via filamentous actin staining, NRCMs were fixed with 4% paraformaldehyde (Wako) and permeabilized with 0.1% Triton X-100 (MP Biomedicals, France), followed by blocking with 1% bovine serum albumin (Wako) and staining with 2 μM phalloidin–fluorescein isothiocyanate (phalloidin-FITC; Sigma-Aldrich, Japan) and 10 μM Hoechst 33258 (Dojindo). Quantification of FITC-fluorescence intensity and cell number was performed using an IN Cell Analyzer 6000 (GE Healthcare Japan). The signals from obtained images were quantitated by means of a customized image analysis algorithm using the IN Cell Developer Toolbox (GE Healthcare Japan). Hypertrophic scores were calculated as the product of FITC-fluorescence intensity and cell area per cell as programmed by GE Healthcare technical support experts.

[5] = target: T2, human P2Y1 receptor (Homo sapiens, UniProt P47900); assay: FLIPR Ca2+ mobilization assay in transiently hP2Y1-expressing 1321N1 cells; format: cell-based; details: at up to 30 µM
T2 construct: expressed in transfected cells; host or cells: 1321N1 human astrocytoma cells, pcDNA3.1(+) plasmid, transient
T2 sequence (P47900 whole entry): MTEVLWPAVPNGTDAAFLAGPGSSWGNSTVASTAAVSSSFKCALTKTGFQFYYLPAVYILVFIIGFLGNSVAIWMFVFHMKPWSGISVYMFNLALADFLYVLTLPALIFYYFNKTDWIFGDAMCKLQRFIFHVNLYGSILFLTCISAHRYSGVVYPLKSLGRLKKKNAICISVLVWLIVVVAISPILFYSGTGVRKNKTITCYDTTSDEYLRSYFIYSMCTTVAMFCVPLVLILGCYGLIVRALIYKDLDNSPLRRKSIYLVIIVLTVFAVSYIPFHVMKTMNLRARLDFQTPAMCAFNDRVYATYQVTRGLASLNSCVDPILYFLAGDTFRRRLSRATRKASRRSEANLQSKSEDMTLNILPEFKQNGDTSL

[6] = target: T1, P2Y2 in neonatal rat cardiomyocytes (NRCMs); details: without ATP
[7] = target: T3, human P2Y11 receptor (Homo sapiens, UniProt Q96G91); assay: FLIPR Ca2+ mobilization assay in transiently hP2Y11-expressing 1321N1 cells; format: cell-based; details: at up to 30 µM
T3 construct: expressed in transfected cells; host or cells: 1321N1 human astrocytoma cells, pcDNA3.1(+) plasmid, transient
T3 sequence (Q96G91 1-374): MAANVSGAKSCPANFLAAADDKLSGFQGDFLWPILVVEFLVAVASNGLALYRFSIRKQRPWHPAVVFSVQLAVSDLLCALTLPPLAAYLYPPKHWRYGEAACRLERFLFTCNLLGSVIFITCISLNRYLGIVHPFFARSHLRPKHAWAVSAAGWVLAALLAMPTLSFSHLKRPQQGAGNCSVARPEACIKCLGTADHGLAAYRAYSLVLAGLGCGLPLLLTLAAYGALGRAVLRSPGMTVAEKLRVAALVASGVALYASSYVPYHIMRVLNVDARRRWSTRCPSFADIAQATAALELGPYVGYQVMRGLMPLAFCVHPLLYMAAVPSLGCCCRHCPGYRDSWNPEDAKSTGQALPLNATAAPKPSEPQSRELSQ

[8] = test system: β-adrenergic receptor; assay: cAMP signalling in parental 1321N1 cells; format: cell-based, human
[9] = target: T4, human P2Y6 receptor (Homo sapiens, UniProt Q15077); assay: FLIPR Ca2+ mobilization assay in transiently hP2Y6-expressing 1321N1 cells; format: cell-based; details: at up to 30 µM
T4 construct: expressed in transfected cells; host or cells: 1321N1 human astrocytoma cells, pcDNA3.1(+) plasmid, transient
T4 sequence (Q15077 whole entry): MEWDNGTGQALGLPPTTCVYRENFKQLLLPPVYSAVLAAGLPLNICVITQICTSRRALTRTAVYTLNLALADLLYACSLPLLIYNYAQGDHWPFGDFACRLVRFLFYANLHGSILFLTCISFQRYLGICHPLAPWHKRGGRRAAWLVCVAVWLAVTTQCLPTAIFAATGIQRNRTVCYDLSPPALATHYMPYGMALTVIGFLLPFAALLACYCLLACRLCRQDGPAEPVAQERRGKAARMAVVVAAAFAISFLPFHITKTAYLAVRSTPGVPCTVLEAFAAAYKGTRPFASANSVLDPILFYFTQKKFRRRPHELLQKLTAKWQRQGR

[10] = target: human P2Y2 receptors (Homo sapiens, UniProt P41231); assay: cell-based
Sequence of human P2Y2 receptors (P41231 whole entry): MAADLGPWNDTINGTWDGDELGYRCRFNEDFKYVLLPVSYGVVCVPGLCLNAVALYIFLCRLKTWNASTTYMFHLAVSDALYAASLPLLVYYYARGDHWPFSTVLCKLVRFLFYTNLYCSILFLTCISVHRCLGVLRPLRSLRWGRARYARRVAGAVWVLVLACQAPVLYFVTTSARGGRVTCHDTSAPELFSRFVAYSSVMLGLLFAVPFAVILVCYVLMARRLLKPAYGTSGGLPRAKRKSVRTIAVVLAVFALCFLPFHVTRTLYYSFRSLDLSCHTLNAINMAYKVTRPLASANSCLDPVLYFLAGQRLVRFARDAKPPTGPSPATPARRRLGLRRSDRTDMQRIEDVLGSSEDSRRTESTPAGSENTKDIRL

[11] = target: T5, human P2Y12 receptor (Homo sapiens, UniProt Q9H244); assay: cAMP accumulation assay in hP2Y12-1321N1 cells; format: cell-based; details: at up to 30 µM
T5 construct: expressed in transfected cells
T5 sequence (Q9H244 whole entry): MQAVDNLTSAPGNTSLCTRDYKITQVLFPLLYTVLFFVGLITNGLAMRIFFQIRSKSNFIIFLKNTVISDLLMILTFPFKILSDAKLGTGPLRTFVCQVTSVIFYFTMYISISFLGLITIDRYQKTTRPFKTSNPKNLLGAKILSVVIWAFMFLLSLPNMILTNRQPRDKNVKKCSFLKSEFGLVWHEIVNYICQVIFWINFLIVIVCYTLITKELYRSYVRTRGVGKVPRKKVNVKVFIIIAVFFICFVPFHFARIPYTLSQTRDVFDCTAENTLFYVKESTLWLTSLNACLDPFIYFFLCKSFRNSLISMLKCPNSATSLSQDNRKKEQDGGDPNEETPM

[12] = target: T6, mouse P2Y2 receptors (Mus musculus, UniProt P35383); assay: FLIPR Ca2+ mobilization assay in mP2Y2-1321N1 cells; format: cell-based
T6 construct: expressed in transfected cells
T6 sequence (P35383 whole entry): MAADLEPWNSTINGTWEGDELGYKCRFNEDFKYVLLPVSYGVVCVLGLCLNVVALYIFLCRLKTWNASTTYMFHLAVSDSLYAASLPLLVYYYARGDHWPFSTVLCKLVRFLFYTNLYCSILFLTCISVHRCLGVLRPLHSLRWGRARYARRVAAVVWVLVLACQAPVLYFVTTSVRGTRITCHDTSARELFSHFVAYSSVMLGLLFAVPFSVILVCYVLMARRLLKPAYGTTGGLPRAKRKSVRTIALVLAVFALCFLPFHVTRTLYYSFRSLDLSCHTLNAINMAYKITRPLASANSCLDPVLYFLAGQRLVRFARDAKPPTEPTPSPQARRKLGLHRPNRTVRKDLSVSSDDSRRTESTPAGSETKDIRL

[13] = target: T7, human P2Y4 receptor (Homo sapiens, UniProt P51582); assay: FLIPR Ca2+ mobilization assay in transiently hP2Y4-expressing 1321N1 cells; format: cell-based; details: at up to 30 µM
T7 construct: expressed in transfected cells; host or cells: 1321N1 human astrocytoma cells, pcDNA3.1(+) plasmid, transient
T7 sequence (P51582 whole entry): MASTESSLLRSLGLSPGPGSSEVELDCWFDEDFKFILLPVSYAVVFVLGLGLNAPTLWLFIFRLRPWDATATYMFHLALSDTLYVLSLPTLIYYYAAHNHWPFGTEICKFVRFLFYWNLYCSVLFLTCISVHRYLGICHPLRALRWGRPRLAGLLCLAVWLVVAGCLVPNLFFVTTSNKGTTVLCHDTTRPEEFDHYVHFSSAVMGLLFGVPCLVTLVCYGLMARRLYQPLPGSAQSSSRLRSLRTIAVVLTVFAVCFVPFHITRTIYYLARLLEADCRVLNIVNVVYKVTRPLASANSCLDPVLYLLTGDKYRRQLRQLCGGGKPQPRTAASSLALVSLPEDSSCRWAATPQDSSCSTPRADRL

[14] = read-out: extrapolated maximum efficacy with respect to 10 μM ATP

SMILES: Nc1ncnc2c1ncn2[C@@H]1O[C@H](COP(=O)(O)OP(=O)(O)O)[C@@H](O)[C@H]1O [ADP, adenosine-5′-diphosphate]
activity in empty vector-transfected parental 1321N1 cells [1]: lacked activity

SMILES: Nc1ncnc2c1ncn2[C@@H]1O[C@H](COP(=O)(O)OP(=O)(O)OP(=O)(O)O)[C@@H](O)[C@H]1O [ATP, adenosine-5′-triphosphate, reference compound]
EC50 ([2]; EC50 for ATP, NRCMs, in the absence of Compound 89): 2600 nM
expression of all Nr4a genes ([3]; 10 μM, steadily after 30 min): increased
induction of Nr4a1 mRNA at 2 h versus isoproterenol alone [3]: did not affect induction
activity in empty vector-transfected parental 1321N1 cells [1]: lacked activity
effect on isoproterenol-induced cardiac hypertrophy (hypertrophic score) ([4]; 10 and 100 μM, P = 0.568): no significant effects

agonistic activity against hP2Y1 [5]: lacked agonistic activity
intrinsic agonistic activity [6]: no intrinsic agonistic activity
agonistic activity against hP2Y11 [7]: lacked agonistic activity
EC50 ([2]; EC50 for Compound 89, NRCMs, in the presence of 1 μM ATP): 1300 nM
EC50 ([2]; EC50 for Compound 89, NRCMs, in the presence of 30 μM ATP): 110 nM
agonistic activity against hP2Y6 [9]: lacked agonistic activity
EC50 ([10]; EC50 (potency), agonistic activity, transiently-expressing hP2Y2-1321N1 cells (Fig. 1b)): 10500 nM
EC50 ([10]; EC50 for Compound 89, hP2Y2 stably-expressing 1321N1 cells, in the absence of ATP): 53900 nM
EC50 ([10]; EC50 for Compound 89, hP2Y2 stably-expressing 1321N1 cells, in the presence of 10 nM ATP): 2500 nM
Emax [10, 14]: 65.8%
agonistic activity against hP2Y12 [11]: lacked agonistic activity
Emax [12, 14]: 50.9%
EC50 ([12]; stably-expressing mP2Y2-1321N1 cells (Fig. 1b), read-out: EC50 (potency), agonistic activity): 2700 nM
agonistic activity against hP2Y4 [13]: lacked agonistic activity
SMILES: CCN(Cc1ccc(F)cc1)Cc1cc(=O)c2ccc(C)c(C)c2[nH]1 [Compound 89, 2-((ethyl(4-fluorobenzyl)amino)methyl)-7,8-dimethylquinolin-4(1H)-one]
effect on β-adrenergic receptor-mediated cAMP signalling [8]: does not affect
induction of Nr4a1 mRNA at 2 h versus isoproterenol alone [3]: greater
effect on ATP-induced gene expression changes ([3]; co-administration at 10 and 30 μM with ATP, concentration-dependent): enhanced
changes in gene expression (Nr4a1, Nr4a2, Nr4a3, c-fos) by compound alone ([3]; without ATP, up to 90 min): did not induce any changes in gene expression
attenuation of hypertrophy after 48 h of treatment ([4]; 30 μM): Complete attenuation
effect on isoproterenol-induced cardiac hypertrophy (hypertrophic score) ([4]; 1 to 30 μM, concentration-dependent): attenuated

SMILES: O=c1ccn([C@@H]2O[C@H](COP(=O)(O)OP(=O)(O)O)[C@@H](O)[C@H]2O)c(=O)[nH]1 [UDP, uridine-5′-diphosphate]
activity in empty vector-transfected parental 1321N1 cells [1]: lacked activity

SMILES: O=c1ccn([C@@H]2O[C@H](COP(=O)(O)OP(=O)(O)OP(=O)(O)O)[C@@H](O)[C@H]2O)c(=O)[nH]1 [UTP, uridine-5′-triphosphate]
activity in empty vector-transfected parental 1321N1 cells [1]: lacked activity

SMILES: CC(C)NCC(O)c1ccc(O)c(O)c1 (centres unmarked) [isoproterenol, reference compound]
induction of Nr4a1 mRNA at 2 h versus vehicle ([3]; 10 μM isoproterenol, P = 5 × 10^−4): significantly induced
